Measured values published in article PMC4291083, “Ex Vivo Characterization of a Novel Iodine-123-Labelled Aminomethylchroman as a Potential Agonist Ligand for SPECT Imaging of Dopamine D2/3 Receptors” (International Journal of Molecular Imaging, 2014).
Marks after values point to notes of the source that are not given here.

Experiment: Biodistribution studies in rats
Assay type: in vivo, Wistar rats
Conditions: for uptake ratio Frontal cortex/cereb. / uptake ratio Hippocampus/cereb. / uptake ratio Hypothalamus/cereb. / uptake ratio Midbrain/cereb. / uptake ratio Olfactory b./cereb. / uptake ratio Pons/medulla/cereb. / uptake ratio Striatum/cereb. / uptake ratio Thalamus/cereb. / uptake ratio Pituitary/cereb.: rats; for 123I radioactivity, Blood / 123I radioactivity, Cerebellum / 123I radioactivity, Fat: male rats
Method: [^123I]-1 (SA ≥ 37 MBq/nmol) was received after radiolabelling in an isotonic acetate (9% EtOH) buffer (pH 4.8). The solution was passed through a membrane filter (0.2 μm) and was diluted to the proper concentrations. Male Wistar rats (approximately 250 g body weight, obtained from Harlan/Charles River, Zeist, Netherlands) received an intravenous injection in the tail vein of approximately 3.7 MBq/0.4 mL buffer of [^123I]-1 under O2/CO2 anaesthesia. Distribution to the tissue was measured 15 min, 30 min, and 1, 2, 3, 4, and 24 h after the injection to determine the time course of uptake in several organs, including the brain. Four rats were killed at each time point via bleeding by heart puncture (to minimize contribution of blood activity) under O2/CO2 anaesthesia followed by cervical dislocation. Brain regions (cerebellum, frontal and prefrontal cortex, olfactory bulbs, pituitary, medulla with pons, midbrain, striatum, hypothalamus, hippocampus, and thalamus) and various peripheral tissues (heart, lung, liver, spleen, kidney, muscle, fat, and thymus) were quickly excised and weighted. The activity of [^123I] was assayed in a gamma counter, and data was corrected for decay and the amount of radioactivity was presented as percentage of the injected dose, multiplied by the body weight in kilograms, per gram tissue or blood. Selective uptake in the striatum was determined by calculating the ratio of radioactivity in the striatum in relation to that in the cerebellum, since the density of dopamine D2/3 receptor is negligible in this brain area in rats.

uptake ratio Frontal cortex/cereb. (15 min after i.v. injection): 2.962 ± 1.817
uptake ratio Hippocampus/cereb. (15 min after i.v. injection): 0.870 ± 0.303
uptake ratio Hypothalamus/cereb. (15 min after i.v. injection): 1.512 ± 0.546
uptake ratio Midbrain/cereb. (15 min after i.v. injection): 3.712 ± 4.715
uptake ratio Olfactory b./cereb. (15 min after i.v. injection): 0.431 ± 0.330
uptake ratio Pons/medulla/cereb. (15 min after i.v. injection): 1.470 ± 0.520
uptake ratio Striatum/cereb. (15 min after i.v. injection): 1.455 ± 1.265
uptake ratio Thalamus/cereb. (15 min after i.v. injection): 1.670 ± 0.908
uptake ratio Pituitary/cereb. (15 min after i.v. injection, only 1 sample): 1.157^*
uptake ratio Frontal cortex/cereb. (30 min after i.v. injection): 1.543 ± 0.142
uptake ratio Hippocampus/cereb. (30 min after i.v. injection): 1.479 ± 0.466
uptake ratio Hypothalamus/cereb. (30 min after i.v. injection): 1.139 ± 0.014
uptake ratio Midbrain/cereb. (30 min after i.v. injection): 1.144 ± 0.051
uptake ratio Olfactory b./cereb. (30 min after i.v. injection): 0.893 ± 0.067
uptake ratio Pituitary/cereb. (30 min after i.v. injection): 2.262 ± 0.233
uptake ratio Pons/medulla/cereb. (30 min after i.v. injection): 1.036 ± 0.212
uptake ratio Striatum/cereb. (30 min after i.v. injection): 1.294 ± 0.061
uptake ratio Thalamus/cereb. (30 min after i.v. injection): 1.325 ± 0.074
mean ratio of striatum/cerebellum binding (30 min to 4 h p.i., i.v., Wistar rats): about 1.3
uptake ratio Frontal cortex/cereb. (1 h after i.v. injection): 1.154 ± 0.095
uptake ratio Hippocampus/cereb. (1 h after i.v. injection): 1.390 ± 0.210
uptake ratio Hypothalamus/cereb. (1 h after i.v. injection): 1.189 ± 0.132
uptake ratio Midbrain/cereb. (1 h after i.v. injection): 1.207 ± 0.109
uptake ratio Olfactory b./cereb. (1 h after i.v. injection): 1.007 ± 0.050
uptake ratio Pituitary/cereb. (1 h after i.v. injection): 2.502 ± 0.883
uptake ratio Pons/medulla/cereb. (1 h after i.v. injection): 1.218 ± 0.109
uptake ratio Striatum/cereb. (1 h after i.v. injection): 1.246 ± 0.103
uptake ratio Thalamus/cereb. (1 h after i.v. injection): 1.243 ± 0.042
uptake ratio Frontal cortex/cereb. (2 h after i.v. injection): 1.145 ± 0.079
uptake ratio Hippocampus/cereb. (2 h after i.v. injection): 1.301 ± 0.047
uptake ratio Hypothalamus/cereb. (2 h after i.v. injection): 1.116 ± 0.085
uptake ratio Midbrain/cereb. (2 h after i.v. injection): 1.168 ± 0.080
uptake ratio Olfactory b./cereb. (2 h after i.v. injection): 1.125 ± 0.089
uptake ratio Pituitary/cereb. (2 h after i.v. injection): 4.399 ± 2.113
uptake ratio Pons/medulla/cereb. (2 h after i.v. injection): 1.205 ± 0.016
uptake ratio Striatum/cereb. (2 h after i.v. injection): 1.155 ± 0.069
uptake ratio Thalamus/cereb. (2 h after i.v. injection): 1.200 ± 0.067
uptake ratio Frontal cortex/cereb. (3 h after i.v. injection): 1.315 ± 0.360
uptake ratio Hippocampus/cereb. (3 h after i.v. injection): 1.294 ± 0.112
uptake ratio Hypothalamus/cereb. (3 h after i.v. injection): 1.326 ± 0.053
uptake ratio Midbrain/cereb. (3 h after i.v. injection): 1.224 ± 0.090
uptake ratio Olfactory b./cereb. (3 h after i.v. injection): 1.314 ± 0.150
uptake ratio Pituitary/cereb. (3 h after i.v. injection): 3.352 ± 1.490
uptake ratio Pons/medulla/cereb. (3 h after i.v. injection): 1.310 ± 0.114
uptake ratio Striatum/cereb. (3 h after i.v. injection): 1.331 ± 0.126
uptake ratio Thalamus/cereb. (3 h after i.v. injection): 1.582 ± 0.101
uptake ratio Frontal cortex/cereb. (4 h after i.v. injection): 0.865 ± 0.580
uptake ratio Hippocampus/cereb. (4 h after i.v. injection): 1.035 ± 0.114
uptake ratio Hypothalamus/cereb. (4 h after i.v. injection): 1.332 ± 0.103
uptake ratio Midbrain/cereb. (4 h after i.v. injection): 1.097 ± 0.086
uptake ratio Olfactory b./cereb. (4 h after i.v. injection): 1.333 ± 0.124
uptake ratio Pituitary/cereb. (4 h after i.v. injection): 3.570 ± 2.544
uptake ratio Pons/medulla/cereb. (4 h after i.v. injection): 1.214 ± 0.133
uptake ratio Striatum/cereb. (4 h after i.v. injection): 1.156 ± 0.080
uptake ratio Thalamus/cereb. (4 h after i.v. injection): 1.351 ± 0.175
uptake ratio Frontal cortex/cereb. (24 h after i.v. injection): 1.818 ± 0.372
uptake ratio Hippocampus/cereb. (24 h after i.v. injection): 1.031 ± 0.090
uptake ratio Hypothalamus/cereb. (24 h after i.v. injection): 1.989 ± 0.574
uptake ratio Midbrain/cereb. (24 h after i.v. injection): 1.426 ± 0.204
uptake ratio Olfactory b./cereb. (24 h after i.v. injection): 1.444 ± 0.163
uptake ratio Pituitary/cereb. (24 h after i.v. injection): 6.021 ± 0.577
uptake ratio Pons/medulla/cereb. (24 h after i.v. injection): 1.278 ± 0.211
uptake ratio Striatum/cereb. (24 h after i.v. injection): 2.023 ± 0.872
uptake ratio Thalamus/cereb. (24 h after i.v. injection): 2.473 ± 0.599
123I radioactivity, Blood (15 min after i.v. injection): 0.291 ± 0.190 %ID × kg/g
123I radioactivity, Blood (30 min after i.v. injection): 0.486 ± 0.291 %ID × kg/g
123I radioactivity, Blood (1 h after i.v. injection): 0.557 ± 0.087 %ID × kg/g
123I radioactivity, Blood (2 h after i.v. injection): 0.446 ± 0.105 %ID × kg/g
123I radioactivity, Blood (3 h after i.v. injection): 0.428 ± 0.082 %ID × kg/g
123I radioactivity, Blood (4 h after i.v. injection): 0.393 ± 0.136 %ID × kg/g
123I radioactivity, Blood (24 h after i.v. injection): 0.081 ± 0.049 %ID × kg/g
123I radioactivity, Cerebellum (15 min after i.v. injection): 0.858 ± 0.384 %ID × kg/g
123I radioactivity, Cerebellum (30 min after i.v. injection): 1.496 ± 0.478 %ID × kg/g
123I radioactivity, Cerebellum (1 h after i.v. injection): 0.627 ± 0.035 %ID × kg/g
123I radioactivity, Cerebellum (2 h after i.v. injection): 0.196 ± 0.037 %ID × kg/g
123I radioactivity, Cerebellum (3 h after i.v. injection): 0.178 ± 0.061 %ID × kg/g
123I radioactivity, Cerebellum (4 h after i.v. injection): 0.087 ± 0.043 %ID × kg/g
123I radioactivity, Cerebellum (24 h after i.v. injection): 0.014 ± 0.002 %ID × kg/g
123I radioactivity, Fat (15 min after i.v. injection): 3.080 ± 2.656 %ID × kg/g
123I radioactivity, Fat (30 min after i.v. injection): 0.674 ± 0.102 %ID × kg/g
123I radioactivity, Fat (1 h after i.v. injection): 0.509 ± 0.024 %ID × kg/g
123I radioactivity, Fat (2 h after i.v. injection): 0.365 ± 0.094 %ID × kg/g
Structure (SMILES): Oc1ccc2c(c1)O[C@@H](CNCc1ccc([123I])cc1)CC2 [[^123I]-1]
